Results as given in patent US3997403A, “Antibiotic G-418 and the production thereof” (Schering Corporation, priority 1975, dated 1976).
Counter-ions that a name gives are not always drawn.

Experiments:
[1] = test system: E. Histolytica; test: Oral activity against experimental cecal E. Histolytica infections in rats; assay type: in vivo, male Royal Hart rats; conditions: for A.D.I. (average degree of infection): scale 0 to 4, controls averaged 2.2
From the text: Table VII and Table VIII set forth in vivo test results which illustrate the antiprotozoal activity of Antibiotic G-418. The host for the tests were recently weaned male Royal Hart rats (3-4 weeks old) weighing about 50-70 g. The test procedure is a modification of one described by R. J. Schnitzer on pages 355-443 in Experimental Chemotherapy, Vol. 1, Academic Press, New York (1963).
*A.D.I. -- defined as the average degree of infection based upon gross
observations of pathological changes in the cecum and microscopic
observations of the number of amoebae found. These observations are
recorded on a scale of from zero to four, zero representing a
substantially normal cecum. Untreated but infected controls range from
about two to four. In the data set forth the controls averaged 2.2.

[2] = test system: Bacillus subtilis A.T.C.C. 6633; test: standard disc plate microbiological assay; assay type: cell-based; conditions: against the standard antibiotic base (1000 mcg/mg)
From the text: The assay is a standard disc plate assay using Difco Antibiotic Medium No. 5 and Bacillus subtilis A.T.C.C. 6633 as the test organism. The physical conditions of the test are substantially those described for neomycin (Grove and Randall), Assay Methods of Antibiotics published by Medical Encyclopedia Incorporated (1955). The assay is run against a standard preparation of Antibiotic G-418 having a defined potency of 1000 mcg/mg. […] The standard antibiotic sulfate salt assays about 750 mcg/mg. against the standard antibiotic base.

| SMILES | Parasitological Cure Negative/Total ([1]; oral 6.5 mg/kg/day, 1 day) | A.D.I. (average degree of infection) ([1]; oral 6.5 mg/kg/day, 1 day) | Parasitological Cure Negative/Total ([1]; oral 6.5 mg/kg/day, 3 days) | A.D.I. (average degree of infection) ([1]; oral 6.5 mg/kg/day, 3 days) | Parasitological Cure Negative/Total ([1]; oral 6.5 mg/kg/day, 6 days) | A.D.I. (average degree of infection) ([1]; oral 6.5 mg/kg/day, 6 days) | Parasitological Cure Negative/Total ([1]; oral 25 mg/kg/day, 6 days) | A.D.I. (average degree of infection) ([1]; oral 25 mg/kg/day, 6 days) | also measured |
| --- | --- | --- | --- | --- | --- | --- | --- | --- | --- |
| Cc1ncc([N+](=O)[O-])n1CCO [Flagyl] | 0/4 | 1.5 | 0/3 | 1.7 | 1/4 | 0.8 | 1/5 | 0.8 | Parasitological Cure Negative/Total ([1]; oral 13 mg/kg/day, 6 days): 2/6; A.D.I. (average degree of infection) ([1]; oral 13 mg/kg/day, 6 days): 0.8 |
| NC[C@@H]1O[C@H](O[C@H]2[C@@H](O)[C@H](O[C@@H]3[C@@H](O)[C@H](N)C[C@H](N)[C@H]3O[C@H]3O[C@H](CO)[C@@H](O)[C@H](O)[C@H]3N)O[C@@H]2CO)[C@H](N)[C@@H](O)[C@@H]1O [Paromomycin] | 0/4 | 1.0 | 1/5 | 1.0 | 2/4 | 1.3 | 6/7 | 0 | Parasitological Cure Negative/Total ([1]; oral 3.5 mg/kg/day, 3 days): 1/7; A.D.I. (average degree of infection) ([1]; oral 3.5 mg/kg/day, 3 days): 1.9; Parasitological Cure Negative/Total ([1]; oral 3.5 mg/kg/day, 6 days): 1/6; A.D.I. (average degree of infection) ([1]; oral 3.5 mg/kg/day, 6 days): 1.5; Parasitological Cure Negative/Total ([1]; oral 10 mg/kg/day, 1 day): 0/7; A.D.I. (average degree of infection) ([1]; oral 10 mg/kg/day, 1 day): 2.1; Parasitological Cure Negative/Total ([1]; oral 10 mg/kg/day, 3 days): 2/6; A.D.I. (average degree of infection) ([1]; oral 10 mg/kg/day, 3 days): 1.0; Parasitological Cure Negative/Total ([1]; oral 12 mg/kg/day, 6 days): 4/8; A.D.I. (average degree of infection) ([1]; oral 12 mg/kg/day, 6 days): 0.8 |
| CN[C@@H]1[C@@H](O)[C@@H](O[C@@H]2[C@@H](O)[C@H](O[C@H]3O[C@H]([C@@H](C)O)[C@@H](O)[C@H](O)[C@H]3N)[C@@H](N)C[C@H]2N)OC[C@]1(C)O [standard antibiotic sulfate salt] | – | – | – | – | – | – | – | – | potency of standard antibiotic sulfate salt [2]: about 750 mcg/mg |
